In PubChem BioAssay AID2060618 (Molecular Pharmacology Branch, DTP, NCI, 2025):

Tested on: 454973-116-R2-J3-PDC spheroids, percent test/control viability
Experiment: Anticancer human tumor 454973-116-R2-J3-PDC patient-derived pancreatic carcinoma cell line growth inhibition [CLK]
Settings: spheroids with HUVEC and MSC; for IC50: curve of first compound; for viability, T/C: stronger effect = lower value
In short: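 Multi-cell-type spheroids combined patient-derived tumor cells with HUVEC endothelial cells and human mesenchymal stem cells. Paired agents were dosed in half-log steps down from about clinical Cmax, or from 10 microM where Cmax was unknown.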

[1] = second compound 0.0316 µM, first compound 0.0316 µM
[2] = second compound 0.0316 µM, first compound 0.1 µM
[3] = second compound 0.0316 µM, first compound 0.316 µM
[4] = second compound 0.0316 µM, first compound 1 µM
[5] = second compound 0.1 µM, first compound 0.0316 µM
[6] = second compound 0.1 µM, first compound 0.1 µM
[7] = second compound 0.1 µM, first compound 0.316 µM
[8] = second compound 0.1 µM, first compound 1 µM
[9] = second compound 0.316 µM, first compound 0.0316 µM
[10] = second compound 0.316 µM, first compound 0.1 µM
[11] = second compound 0.316 µM, first compound 0.316 µM
[12] = second compound 0.316 µM, first compound 1 µM
[13] = second compound 1 µM, first compound 0.0316 µM
[14] = second compound 1 µM, first compound 0.1 µM
[15] = second compound 1 µM, first compound 0.316 µM
[16] = second compound 1 µM, first compound 1 µM
[17] = second compound 3.16 µM, first compound 0.0316 µM
[18] = second compound 3.16 µM, first compound 0.1 µM
[19] = second compound 3.16 µM, first compound 0.316 µM
[20] = second compound 3.16 µM, first compound 1 µM
[21] = second compound 10 µM, first compound 0.0316 µM
[22] = second compound 10 µM, first compound 0.1 µM
[23] = second compound 10 µM, first compound 0.316 µM
[24] = second compound 10 µM, first compound 1 µM
[25] = second compound 0.0316 µM, first compound 0.00316 µM
[26] = second compound 0.0316 µM, first compound 0.01 µM
[27] = second compound 0.1 µM, first compound 0.00316 µM
[28] = second compound 0.1 µM, first compound 0.01 µM
[29] = second compound 0.316 µM, first compound 0.00316 µM
[30] = second compound 0.316 µM, first compound 0.01 µM
[31] = second compound 1 µM, first compound 0.00316 µM
[32] = second compound 1 µM, first compound 0.01 µM
[33] = second compound 3.16 µM, first compound 0.00316 µM
[34] = second compound 3.16 µM, first compound 0.01 µM
[35] = second compound 10 µM, first compound 0.00316 µM
[36] = second compound 10 µM, first compound 0.01 µM
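Further: spheroids exposed to compounds for 7 days before readout.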

CC(Nc1ccc2c(c1)OCCn1cc(N3C(=O)OCC3C(F)F)nc1-2)C(N)=O (stereo unspecified) + CNC(=O)c1ccc(Nc2nc(OC3CCCC3)c3c(-c4ccc5nc(C)oc5c4)c[nH]c3n2)c(OC)c1 was tested, and the IC50 (second compound 0.0316 µM) was over 10000 nM, the IC50 (second compound 0.1 µM) was 5040 nM and the IC50 (second compound 0.316 µM) was 467 nM. The IC50 (second compound 1 µM) was under 31.6 nM, the IC50 (second compound 3.16 µM) was under 31.6 nM and the IC50 (second compound 10 µM) was under 31.6 nM. The viability, T/C [1] was 98.4%, the viability, T/C [2] was 79.5% and the viability, T/C [3] was 80%. For the same compound, the viability, T/C [4] was 70.7%, the viability, T/C (second compound 0.0316 µM, first compound 3.16 µM) was 67.9% and the viability, T/C (second compound 0.0316 µM, first compound 10 µM) was 46%. It also gave a viability, T/C [5] of 96.8%, a viability, T/C [6] of 86.4% and a viability, T/C [7] of 74.9%. It also gave a viability, T/C [8] of 59%, a viability, T/C (second compound 0.1 µM, first compound 3.16 µM) of 58.6% and a viability, T/C (second compound 0.1 µM, first compound 10 µM) of 43%. The viability, T/C [9] was 54.8%, the viability, T/C [10] was 54.4% and the viability, T/C [11] was 55.6%. The viability, T/C [12] was 41.2%, the viability, T/C (second compound 0.316 µM, first compound 3.16 µM) was 36.8% and the viability, T/C (second compound 0.316 µM, first compound 10 µM) was 30.3%. For the same compound, the viability, T/C [13] was 31.1%, the viability, T/C [14] was 26.9% and the viability, T/C [15] was 22.5%. For the same compound, the viability, T/C [16] was 19.7%, the viability, T/C (second compound 1 µM, first compound 3.16 µM) was 16.9% and the viability, T/C (second compound 1 µM, first compound 10 µM) was 13.5%. It also gave a viability, T/C [17] of 23.5%, a viability, T/C [18] of 26.3% and a viability, T/C [19] of 23.5%. The viability, T/C [20] was 21.5%, the viability, T/C (second compound 3.16 µM, first compound 3.16 µM) was 14.7% and the viability, T/C (second compound 3.16 µM, first compound 10 µM) was 13.5%. For the same compound, the viability, T/C [21] was 24.3%, the viability, T/C [22] was 22.8% and the viability, T/C [23] was 21.1%. For the same compound, the viability, T/C [24] was 19.7%, the viability, T/C (second compound 10 µM, first compound 3.16 µM) was 13.3% and the viability, T/C (second compound 10 µM, first compound 10 µM) was 11.1%.
CCN1CCN(Cc2ccc(Nc3ncc(F)c(-c4cc(F)c5nc(C)n(C(C)C)c5c4)n3)nc2)CC1 + CNC(=O)c1ccc(Nc2nc(OC3CCCC3)c3c(-c4ccc5nc(C)oc5c4)c[nH]c3n2)c(OC)c1 was tested, and the IC50 (second compound 0.0316 µM) was over 1000 nM, the IC50 (second compound 0.1 µM) was over 1000 nM and the IC50 (second compound 0.316 µM) was under 3.16 nM. The IC50 (second compound 1 µM) was under 3.16 nM, the IC50 (second compound 3.16 µM) was under 3.16 nM and the IC50 (second compound 10 µM) was under 3.16 nM. It also gave a viability, T/C [25] of 103%, a viability, T/C [26] of 90.4% and a viability, T/C [1] of 82.8%. It also gave a viability, T/C [2] of 69.1%, a viability, T/C [3] of 67.2% and a viability, T/C [4] of 60.4%. The viability, T/C [27] was 96.8%, the viability, T/C [28] was 84.7% and the viability, T/C [5] was 79.2%. The viability, T/C [6] was 67.2%, the viability, T/C [7] was 63.4% and the viability, T/C [8] was 56.2%. The viability, T/C [29] was 44.8%, the viability, T/C [30] was 44.4% and the viability, T/C [9] was 54.5%. For the same compound, the viability, T/C [10] was 55.6%, the viability, T/C [11] was 52.5% and the viability, T/C [12] was 63.6%. It also gave a viability, T/C [31] of 34.4%, a viability, T/C [32] of 34.1% and a viability, T/C [13] of 39%. The viability, T/C [14] was 43%, the viability, T/C [15] was 43.3% and the viability, T/C [16] was 47%. The viability, T/C [33] was 30.6%, the viability, T/C [34] was 35.5% and the viability, T/C [17] was 37.2%. The viability, T/C [18] was 39.1%, the viability, T/C [19] was 38.5% and the viability, T/C [20] was 46.2%. The viability, T/C [35] was 27.5%, the viability, T/C [36] was 27% and the viability, T/C [21] was 33.5%. For the same compound, the viability, T/C [22] was 37.8%, the viability, T/C [23] was 41.8% and the viability, T/C [24] was 47.3%.
With COc1c(OCCCN2CCOCC2)ccc2c3n(c(=NC(=O)c4cnc(N)nc4)nc12)CCN3 + CNC(=O)c1ccc(Nc2nc(OC3CCCC3)c3c(-c4ccc5nc(C)oc5c4)c[nH]c3n2)c(OC)c1 the IC50 (second compound 0.0316 µM) was 72.2 nM, the IC50 (second compound 0.1 µM) was 66.9 nM and the IC50 (second compound 0.316 µM) was 17.9 nM. For the same compound, the IC50 (second compound 1 µM) was under 3.16 nM, the IC50 (second compound 3.16 µM) was under 3.16 nM and the IC50 (second compound 10 µM) was under 3.16 nM. It also gave a viability, T/C [25] of 99.8%, a viability, T/C [26] of 93% and a viability, T/C [1] of 71.3%. It also gave a viability, T/C [2] of 39%, a viability, T/C [3] of 24.4% and a viability, T/C [4] of 8.47%. The viability, T/C [27] was 96.2%, the viability, T/C [28] was 79.6% and the viability, T/C [5] was 70.5%. It also gave a viability, T/C [6] of 37.5%, a viability, T/C [7] of 24.2% and a viability, T/C [8] of 8.81%. For the same compound, the viability, T/C [29] was 56.4%, the viability, T/C [30] was 54.7% and the viability, T/C [9] was 47%. It also gave a viability, T/C [10] of 26.1%, a viability, T/C [11] of 17.5% and a viability, T/C [12] of 7.41%. For the same compound, the viability, T/C [31] was 34.2%, the viability, T/C [32] was 30.5% and the viability, T/C [13] was 22.2%. For the same compound, the viability, T/C [14] was 13.1%, the viability, T/C [15] was 8.12% and the viability, T/C [16] was 4.63%. It also gave a viability, T/C [33] of 25.7%, a viability, T/C [34] of 24.6% and a viability, T/C [17] of 21.1%. The viability, T/C [18] was 14.8%, the viability, T/C [19] was 7.11% and the viability, T/C [20] was 5.46%. It also gave a viability, T/C [35] of 24.2%, a viability, T/C [36] of 22% and a viability, T/C [21] of 17.8%. For the same compound, the viability, T/C [22] was 13.3%, the viability, T/C [23] was 8.89% and the viability, T/C [24] was 3.02%.
